Results on nine compounds are retold here after ChEMBL document CHEMBL3217608, “Alkaloids from Rutaceae: activities of canthin-6-one alkaloids and synthetic analogues on glioblastoma stems cells” (Medchemcomm, 2012).

Data set [1] concerns TG1. Nature of the data set: (§1) Antiproliferative against human TG1 cells at 30 to 300 uM after 24 hrs by WST-1 assay. The class given is functional.
Data set [2] can be described thus: as §1. The class given is functional.
Data set [3] is described as follows: Antiproliferative against human TG10 cells at 30 to 300 uM after 24 hrs by WST-1 assay. The class given is functional.
The nature of data set [4]: Antiproliferative against human NSC-24 cells at 30 to 300 uM after 24 hrs by WST-1 assay. It is filed as cell-based. Conditions: nsc-24, 24 h.
The next data set relates to TG10. Nature of the data set: (§2) Antiproliferative against human TG10 cells at 300 uM after 24 hrs by WST-1 assay. It is filed as functional.
In data set [5] the test system is TG1. Nature of the data set: (§3) Antiproliferative against human TG1 cells at 300 uM after 24 hrs by WST-1 assay. It is filed as functional.
Data set [6] addresses RAC-alpha serine/threonine-protein kinase (Homo sapiens) (UniProt P31749). Nature of the data set: Inhibition of AKT phosphorylation in human TG10 cells at 300 uM after 30 mins by Western blot analysis. The class given is cell-based.
Data set [7] shares this target. Nature of the data set: Inhibition of AKT phosphorylation in human TG1 cells at 300 uM after 30 mins by Western blot analysis. The class given is cell-based.
The target is the same in data set [8]. Nature of the data set: Inhibition of AKT phosphorylation in human NSC-24 cells at 300 uM after 30 mins by Western blot analysis. The class given is cell-based.
The nature of data set [9]: as §2. The class given is functional.
The nature of data set [10]: as §3. The class given is functional.
Data set [11] can be described thus: Antiproliferative against human NSC-24 cells at 300 uM after 24 hrs by WST-1 assay. The class given is cell-based. Conditions: nsc-24, 24 h.
The nature of data set [12]: Antiproliferative against human TG1 cells after 24 hrs by WST-1 assay. The class given is functional.
The nature of data set [13]: Antiproliferative against human TG10 cells after 24 hrs by WST-1 assay. The class given is functional.

Activity calls are given as the source filed them. The calls are words filed in the database; no cut-off is given here.

Sequence of RAC-alpha serine/threonine-protein kinase (Homo sapiens) (P31749 whole entry): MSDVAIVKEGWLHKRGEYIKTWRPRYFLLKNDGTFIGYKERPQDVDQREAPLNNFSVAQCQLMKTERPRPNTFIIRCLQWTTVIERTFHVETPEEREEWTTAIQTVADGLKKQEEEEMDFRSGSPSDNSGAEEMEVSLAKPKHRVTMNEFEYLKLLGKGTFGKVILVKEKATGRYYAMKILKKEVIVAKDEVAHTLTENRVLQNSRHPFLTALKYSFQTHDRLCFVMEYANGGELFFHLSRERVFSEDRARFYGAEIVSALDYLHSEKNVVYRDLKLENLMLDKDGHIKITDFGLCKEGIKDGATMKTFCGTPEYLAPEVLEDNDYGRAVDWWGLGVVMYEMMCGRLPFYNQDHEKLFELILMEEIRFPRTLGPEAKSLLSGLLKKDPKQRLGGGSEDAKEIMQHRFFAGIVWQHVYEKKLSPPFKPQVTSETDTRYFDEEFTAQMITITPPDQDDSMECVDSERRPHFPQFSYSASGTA

Regarding `Nc1cc(=O)n2c3ccccc3c3ccnc1c32`, the result with TG1 [1] was inactive.

As to `O=C1CCc2nccc3c4ccccc4n1c23`, the result with TG1 [1] was inactive.

On to `O=c1ccc2nccc3c4ccccc4n1c23` [CANTHIN-6-ONE], for which the Activity in data set [2] came out at 40%; in [3], 35%; in data set [4], 60%. The result in the data set with TG10 and in the data set on TG1 [5] was Active. Besides, the inhibition entry in data set [6] and in [7] was “Active” in each case.

For `O=c1ccc2c3c(cc[n+]2[O-])c2ccccc2n13`, the result in the data set with TG1 [1] was inactive.

For the compound `COc1cc2nccc3c4ccccc4n(c1=O)c23` [5-METHOXYCANTHINONE], the Activity in data set [2] is recorded as 40%; in [3], 35%; in data set [4], 60%. Besides, the inhibition entry in data set [6], in data set [7] and in [8] was “Active” each time.

In the case of `O=c1ccc2nccc3c4cc(OCc5ccccc5)ccc4n1c23`, the Activity in data set [2] is 40%; in data set [9], 85%; in data set [10], 40%; in [11] it was “Non-toxic”. In addition, the inhibition entry in data set [6] and in data set [7] was “Active” each time. Moreover, the inhibition result in data set [8] is “inactive”.

For the compound `COc1ccc2c(c1)c1ccnc3ccc(=O)n2c31`, in the data set with TG1 [1], the result was inactive.

On to `O=c1c2ccccc2c2nccc3c4ccccc4n1c32`, for which the outcome in the data set with TG1 [1] was inactive.

Turning to `Cn1nnc2c(C(N)=O)ncn2c1=O` [TEMOZOLOMIDE], the Activity in data set [12] and in [13] was more than 80% throughout.
